# Measurements: US7354611B1, “Fecundity-promoting supplement for the insidious flower bug reared on artificial diet” (The United States of America as represented by the …, priority 2003, dated 2008)
# Tested on: Orius insidiosus
# Experiment: Orius insidiosus fecundity (oviposition) bioassay: adults fed artificial diet with or without supplement, cumulative eggs laid/female counted on green bean
# Format: in vivo
# Conditions: Test 2
# Experimental: Newly emerged adults of Orius insidiosus (<24 hour eclosion) were obtained from a commercial producer of beneficial insects (Entomos, Gainesville, Fla.). The insects were placed on the experimental diets on the third day after eclosion. Each diet treatment consisted of six females and four males in a 100-ml plant tissue culture jar (Sigma, St. Louis, Mo.) with four jars per treatment. Each jar contained one paraffin-encapsulated water dome (50 μl), two artificial diet domes (50 μl), one 7-cm section of green bean pod for oviposition, and three crumpled strips of wax paper (5 mm×80 mm) as substrates for the insects to crawl on. Artificial diet jars contained only artificial diet. Experimental diet jars contained artificial diet plus a supplement. Plodia egg (standard) jars each contained approximately 75 Ploida interpunctella eggs (approximately 3 mg) in place of diet. Although eggs from Euphestia kuehniella are generally used by commercial producers, eggs from P. interpunctella were used because O. insidiosus feeds readily on their eggs. Green beans were removed every other day and examined under a microscope to count eggs and then replaced with a fresh green bean section and mortality was also recorded within each jar. Plodia eggs and domes of water and diet were replaced on the same days that the green beans were removed for counting eggs. The insects were held in a growth chamber at about 25.50±1° C., with approximately 75±5% relative humidity, and a photoperiod of 15:9 (light:dark) hours. The experiments were carried out until the females in all treatments ceased oviposition, approximately 28 days. Diets were prepared under aseptic conditions in a clean room and encapsulated in Parafilm using a diet encapsulation apparatus as described in Ferkovich et al. (BioControl, Volume 45, 401-413, 2000).
# The artificial diet was developed for rearing Orius sauteri (Weiru and Ren, 1989, supra), and consisted of approximately 4.0 grams brewers yeast, 0.4 grams sucrose, 2.1 grams soy protein acid hydrolysate, 0.046 grams of 99% palmitic acid (all from Sigma, St. Louis, Mo.), 0.5 grams chicken egg yolk, and 1.0 gram honey in 12 ml distilled water. Palmitic acid was mixed with the egg yolk component before adding it to the diet.
# Two tests were conducted. In the first test, artificial diet was compared with the experimental diets which were composed of artificial diet supplemented with homogenized Plodia eggs, and protein and lipid extracts from Plodia eggs as described above. Each experimental diet was compared against the control artificial diet in an independent experiment on different dates. In the second test, any of the statistically significant experimental diets from the first test were then simultaneously compared with the experimental diets containing non-insect supplements.
# Each treatment in both tests was replicated four times with 6 females and 4 males/replication. The cumulative number of eggs laid/female on artificial diet and on experimental diet were calculated relative to the percent eggs laid/female on Plodia eggs (standard); thus, mean ±S.E.=[#eggs laid per female on either artificial diet or experimental diet divided by # eggs laid per female on Plodia eggs]×100, n=4. The egg counts were adjusted for mortality. The egg counts per female were calculated for each replication. Data was analyzed by ANOVA using StatMost Software (Dataxiom Software Inc.). […]
# [1] = Bovine Serum Albumin 83.3 mg/ml diet
# [2] = Bovine Serum Albumin 166.7 mg/ml diet
substance,measurement,setting,value
"Bovine Serum Albumin: Bovine Serum albumin, Fraction V powder, Sigma",% of Plodia egg Standard ± SE,[1],51.3 ± 4.1%
same,Mean no. eggs/female ± SE,[1],19.7 ± 1.6 eggs/female
same,% of Plodia egg Standard ± SE,[2],64.9 ± 4.2%
same,Mean no. eggs/female ± SE,[2],24.9 ± 1.6 eggs/female
same,effect on cumulative mean number of egg oviposited/female,versus artificial diet (Table 2),significantly increased
